From the supplement of paper PMC10307832

Tests used:
Assay in all cases: relative viability (nuclei count vs DMSO), 5 days (fraction); higher = more cells survive
Palbociclib + Trametinib = compound: CC(=O)c1c(C)c2cnc(Nc3ccc(N4CCNCC4)cn3)nc2n(C2CCCC2)c1=O [Palbociclib] + CC(=O)Nc1cccc(-n2c(=O)n(C3CC3)c(=O)c3c(Nc4ccc(I)cc4F)n(C)c(=O)c(C)c32)c1 [Trametinib] (partner 0.02 µM)
How it was run: (§1)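 Dosing by pin tool came one day after lung cancer cell lines were seeded in 1536-well plates, using either one drug or a fixed anchor-drug dose plus five library-drug doses (not always all listed) in √10 steps. After 5 days, nuclei were counted on 4× images. Relative viability is treated-well nuclei count divided by vehicle-well nuclei count, and values are medians of duplicate plates.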

Palbociclib + Bortezomib = compound: CC(=O)c1c(C)c2cnc(Nc3ccc(N4CCNCC4)cn3)nc2n(C2CCCC2)c1=O [Palbociclib] + CC(C)C[C@H](NC(=O)[C@H](Cc1ccccc1)NC(=O)c1cnccn1)B(O)O [Bortezomib] (partner 0.002 µM)
How it was run: as §1

Palbociclib + Dasatinib = compound: CC(=O)c1c(C)c2cnc(Nc3ccc(N4CCNCC4)cn3)nc2n(C2CCCC2)c1=O [Palbociclib] + Cc1nc(Nc2ncc(C(=O)Nc3c(C)cccc3Cl)s2)cc(N2CCN(CCO)CC2)n1 [Dasatinib] (partner 0.075 µM)
How it was run: as §1

Palbociclib + AZD7762 = compound: CC(=O)c1c(C)c2cnc(Nc3ccc(N4CCNCC4)cn3)nc2n(C2CCCC2)c1=O [Palbociclib] + NC(=O)Nc1cc(-c2cccc(F)c2)sc1C(=O)N[C@H]1CCCNC1 [AZD7762] (partner 0.2 µM)
How it was run: as §1

| Cell Line | relative viability (Palbociclib + Trametinib; first compound 0.01 µM) | relative viability (Palbociclib + Trametinib; first compound 0.03162 µM) | relative viability (Palbociclib + Trametinib; first compound 0.1 µM) | relative viability (Palbociclib + Trametinib; first compound 0.3162 µM) | relative viability (Palbociclib + Trametinib; first compound 1 µM) | relative viability (Palbociclib + Bortezomib; first compound 0.01 µM) | relative viability (Palbociclib + Bortezomib; first compound 0.03162 µM) | relative viability (Palbociclib + Bortezomib; first compound 0.1 µM) | relative viability (Palbociclib + Bortezomib; first compound 0.3162 µM) | relative viability (Palbociclib + Bortezomib; first compound 1 µM) | relative viability (Palbociclib + Dasatinib; first compound 0.01 µM) | relative viability (Palbociclib + Dasatinib; first compound 0.03162 µM) | relative viability (Palbociclib + Dasatinib; first compound 0.1 µM) | relative viability (Palbociclib + Dasatinib; first compound 0.3162 µM) | relative viability (Palbociclib + Dasatinib; first compound 1 µM) | relative viability (Palbociclib + AZD7762; first compound 0.01 µM) | relative viability (Palbociclib + AZD7762; first compound 0.03162 µM) | relative viability (Palbociclib + AZD7762; first compound 0.1 µM) | relative viability (Palbociclib + AZD7762; first compound 0.3162 µM) | relative viability (Palbociclib + AZD7762; first compound 1 µM) |
| --- | --- | --- | --- | --- | --- | --- | --- | --- | --- | --- | --- | --- | --- | --- | --- | --- | --- | --- | --- | --- |
| H3255 | 0.606 | 0.588 | 0.539 | 0.48 | 0.412 | 0.912 | 0.789 | 0.624 | 0.641 | 0.317 | 0.347 | 0.386 | 0.338 | 0.322 | 0.277 | 1.07 | 0.8 | 0.831 | 0.798 | 0.506 |
| HARA | 0.654 | 0.545 | 0.763 | 0.627 | 0.338 | 1.07 | 1.02 | 1 | 0.874 | 0.389 | 0.27 | – | 0.24 | 0.193 | 0.149 | 0.379 | 0.137 | 0.244 | 0.364 | 0.242 |
| HCC-15 | 0.409 | – | 0.325 | 0.37 | 0.304 | 1.1 | – | 0.929 | 0.833 | 0.737 | 0.622 | – | 0.516 | 0.598 | 0.439 | 1.27 | – | 1.03 | 1.13 | 0.866 |
| HCC-78 | 0.869 | 0.62 | 0.524 | 0.531 | 0.374 | 0.385 | 0.451 | 0.366 | 0.454 | 0.406 | 0.348 | 0.361 | 0.348 | 0.26 | 0.215 | 0.731 | 0.623 | 0.67 | 0.525 | 0.685 |
| HCC-366 | 0.466 | – | 0.41 | 0.298 | 0.24 | 0.953 | – | 0.965 | 0.975 | 0.616 | 0.611 | – | 0.605 | 0.444 | 0.174 | 0.198 | – | 0.43 | 0.232 | 0.11 |
| HCC-827 | 0.545 | 0.52 | 0.449 | 0.476 | 0.399 | 1.09 | 0.804 | 0.954 | 0.948 | 0.857 | 0.296 | 0.234 | 0.311 | 0.264 | 0.288 | 0.245 | 0.211 | 0.202 | 0.203 | 0.168 |
| HOP-62 | 0.431 | – | 0.36 | 0.382 | 0.288 | 0.418 | – | 0.741 | 0.612 | 0.57 | 0.704 | – | 0.57 | 0.525 | 0.463 | 0.334 | – | 0.389 | 0.501 | 0.355 |
| LC-2-ad | 0.966 | 0.884 | 0.889 | 0.804 | 0.666 | 1.03 | – | 0.779 | 0.704 | 0.469 | 0.459 | – | 0.541 | 0.446 | 0.325 | 0.886 | 0.692 | 0.734 | 0.702 | 0.513 |
| LCLC-97TM1 | 0.209 | – | 0.208 | 0.182 | 0.184 | 0.729 | 0.514 | 0.396 | 0.319 | 0.138 | 0.694 | 0.572 | 0.738 | 0.585 | 0.329 | 0.391 | – | 0.252 | 0.199 | 0.152 |
| LCLC-103H | 0.7 | 0.617 | 0.686 | 0.654 | 0.547 | 1.2 | 0.957 | 0.967 | 0.87 | 0.649 | 0.44 | 0.331 | 0.452 | 0.367 | 0.307 | 0.731 | 0.55 | 0.716 | 0.708 | 0.539 |
| LOU-NH91 | 0.798 | 0.662 | 0.581 | 0.612 | 0.62 | 0.458 | 0.439 | 0.441 | 0.446 | 0.489 | 0.66 | 0.425 | 0.429 | 0.434 | 0.41 | 0.753 | 0.679 | 0.62 | 0.572 | 0.528 |
| LU99A | 0.557 | – | 0.523 | 0.573 | 0.478 | 0.976 | 0.935 | 1 | 1.09 | 0.67 | 0.506 | 0.428 | 0.353 | 0.344 | 0.379 | 0.405 | – | 0.277 | 0.34 | 0.27 |
| LXF-289 | 0.662 | 0.633 | 0.632 | 0.619 | 0.605 | 0.997 | 0.933 | 0.971 | 0.852 | 0.677 | 0.208 | 0.0993 | 0.164 | 0.148 | 0.174 | 1.03 | 0.692 | 1.06 | 0.96 | 0.779 |
| NCI-H23 | 0.447 | 0.295 | 0.42 | 0.39 | 0.289 | 1.12 | – | 0.87 | 0.703 | 0.553 | 0.835 | – | 0.8 | 0.732 | 0.541 | 0.304 | 0.324 | 0.268 | 0.248 | 0.217 |
| NCI-H322M | 0.499 | 0.474 | 0.491 | 0.482 | 0.51 | 1.27 | 1.07 | 1.07 | 1.01 | 0.785 | 0.278 | 0.216 | 0.207 | 0.209 | 0.198 | 0.59 | 0.572 | 0.524 | 0.507 | 0.451 |
| NCI-H441 | 0.483 | 0.409 | 0.23 | 0.228 | 0.155 | – | 0.365 | 0.446 | 0.558 | 0.367 | 0.518 | 0.525 | 0.522 | 0.362 | 0.221 | 1.04 | 0.844 | 0.896 | 0.743 | 0.598 |
| NCI-H460 | 0.0946 | 0.116 | 0.0577 | 0.185 | 0.0348 | 1.11 | 0.937 | 0.909 | 0.745 | 0.172 | 0.459 | 0.429 | 0.392 | 0.314 | 0.162 | 0.591 | 0.512 | 0.557 | 0.484 | 0.178 |
